Reference: patent US20260232706A1, “1H-PYRAZOLE ANALOGUES AND METHODS AND USES THEREOF” (University of Manitoba, priority 2022, published 2026)
Where “and” joins values, the source holds several entries; their conditions need not be identical. Equal values may be shown once. Entries after “also recorded” stand apart in the source; their conditions may differ.

System: SOD1-G37R mouse model of ALS, Het G37R (Line 42) mice
Assay: Therapeutic efficacy in the SOD1-G37R mouse model of ALS
Type: in vivo
Protocol: Methods: B^5-EDR analogues were synthesized as described in Example 1. The specific methodology employed for this Example is described below. All the statistical analyses were carried out by using GraphPad Prism […] software (version 9.5.1 (733)), (GraphPad Software, La Jolla, CA). Statistical significance was performed using a two-tailed unpaired t-test used for body weight assessment, disease onset, survival, and weight loss comparisons. Kaplan-Meier survival analysis and log rank test was also used for survival analysis. For these in vivo studies, disease onset or symptom onset was defined by two criteria. The first criteria is defined by the loss of 10% body weight based on the highest recorded weight during the age of the mice after pre symptom onset treatment study. The loss of 10% body weight is often accompanied by appearance of symptoms of muscle weakness and the second criteria of disease onset, which is retrospectively defined as the age at which the mouse reaches peak weight. Mice were assessed and monitored daily by trained staff for weight and muscle weakness starting at 90 days of age i.e., well before clinical onset of disease. According to the common consensus among ALS scientific community, the disease onset is defined as a time when mice have reached their peak body weight well before the denervation induced muscle atrophy and weight loss.
Transgenic mice carrying human G37R mutant SOD1 [B6.Cg Tg(SOD1*G37R)42Dpr/J] were obtained from the Jackson Laboratory (Bar Harbor, ME, USA). These mice were crossed with female mice with a C57BL/6 background for at least four generations. Colonies are maintained in the Central Animal Care Services (CACS), University of Manitoba. The mice were used in accordance with the Guide of Care and Use of Experimental Animals of the Canadian Council on Animal Care. Transgenic offspring were genotyped by PCR of DNA obtained from ear biopsies, see (ia) below, using a protocol provided by the Jackson Laboratory.
For these experiments, a set of experiments was carried out having two groups of mice: • Group 1: Sham treatment (1:20 DMSO/PBS); and • Group 2: NS-1-2 treatment (1:20 DMSO/PBS) (10 mg/kg body weight/day). For these experiments, age matched Het G37R (Line 42) mice were administered vehicle (1:20, DMSO:PBS) or treatment (NS-1-2; 10 mg/kg bodyweight), daily, starting at the age of 90 days until the age of 210 days, and monitored daily for several significant humane point indicators including, a) Mouse unable to right itself in 15 sec b) 25% loss of weight on the highest recorded weight c) Full paralysis of one or more hind limbs d) Loss of bladder functions e) Crusty eyes/loss of vision and/or f) Penile prolapse.
For weight loss experiments, weight loss was based on highest recorded weight (humane end point).
For disease onset experiments, symptom onset was assessed (i.e. loss of 10% body weight based on the highest recorded weight with muscle weakness and time to peak body weight (days), was assessed and monitored daily by trained staff starting at 90 days of age i.e., well before pre-symptom onset of disease also, monitored daily for several significant humane point indicators including a) Mouse unable to right itself in 15 sec b) 25% loss of weight on the highest recorded weight c) Full paralysis of one or more hind limbs d) Loss of bladder functions e) Crusty eyes/loss of vision f) Penile prolapse. One tailed (unpaired t test) was performed to analyse age to reach (10%) loss of body weight.

[1] = individual animals, NS-1-2 treatment (N = 10)

## Cc1cc(B2OC(C)(C)C(C)(C)O2)n(-c2ccccc2)n1 [NS-1-2, 3-methyl-5-(4,4,5,5-tetramethyl-1,3,2-dioxaborolan-2-yl)-1-phenyl1H-pyrazole]
10 mg/kg/day IP from age 90 to 210 days
  prolongation of survival age or life span versus control (Kaplan-Meier): 14.5 days
10 mg/kg/day IP from age 90 to 210 days, n=10, FIG. 14
  mean age of survival (humane end point): 196.7 days
10 mg/kg/day IP from age 90 to 210 days, n=10, FIG. 15
  median survival (Kaplan-Meier): 199.5 days
Age to reach peak body weight
  delay of disease onset versus control (Kaplan-Meier): 20 days
Based on highest recorded weight, n=10, FIG. 16
  percentage mean weight loss (humane end point): 17.55%
[1]
  Age to reach 10% loss of body weight based on highest recorded weight with muscle weakness: 199 days and 171 days and 184 days and 180 days and 193 days and 195 days (2×) and 203 days and 196 days and 165 days
  Disease Onset: Age to reach peak body weight: 143 days (2×) and 156 days and 147 days and 154 days and 164 days and 163 days and 188 days and 148 days and 144 days
  Treatment G37R (Survival Days) (Humane End Point): 201 Days (2×) and 205 Days and 189 Days and 195 Days and 198 Days and 203 Days and 197 Days and 204 Days and 174 Days
Individual animals, above or below the 25% criterion
  25% Loss of Weight Based on Highest Recorded Weight (Humane End Point): Weight Loss <25%
Individual animals, humane end point, based on highest recorded weight
  Weight Loss (%): Weight Loss (%): 17.056; also recorded: Weight Loss (%): 18.91; also recorded: Weight Loss (%): 19.67; also recorded: Weight Loss (%): 20; also recorded: Weight Loss (%): 15.68; also recorded: Weight Loss (%): 18.543; also recorded: Weight Loss (%): 10.122; also recorded: Weight Loss (%): 13.66; also recorded: Weight Loss (%): 18.548; also recorded: Weight Loss (%): 23.34
mean, 10 mg/kg/day IP from age 90 to 210 days
  difference in survival versus control: 13.3 days
mouse, in vivo
  delay of disease onset versus control (10% weight loss): around 23.2 days
  delay of disease onset versus control (time to peak body weight, mean): around 23.6 days
n=10, FIG. 17
  disease onset: mean age (loss of 10% body weight with muscle weakness): 188.1 days
n=10, FIG. 18
  disease onset: mean age (time to peak body weight): 155 days
n=10, FIG. 19
  median age to reach peak body weight (Kaplan-Meier, printed as median survival): 151 days
